Test system: TRPV1-overexpressed HEK293 cells
Conditions: FIGS. 1F-1K, tested concentrations 0-5 μM

CC(C)(C)c1cc2c(O)c(c1)Cc1cc(C(C)(C)C)cc(c1O)Cc1cc(C(C)(C)C)cc(c1O)Cc1cc(C(C)(C)C)cc(c1O)C2 [4-tert-Butylcalix[4]arene]
toxicity on the cells of the calixarene derivative in the formulation: did not cause any toxicity

Source: patent US11918659B2, “Materials and methods for inducing therapeutic hypothermia in a mammalian subject” (priority 2018, dated 2024)
